Measurements as given in patent US8343760B2, “p53 activator peptides” (University of Maryland, Baltimore, priority 2008, dated 2013).
Where a SMILES comes first, the peptide text is derived from it. Bridges are numbered along the chain shown (N, C = ends).

Key:
synMDM2 = target: T1, synMDM2 (Homo sapiens, UniProt Q00987); assay: Trp fluorescence spectroscopy on addition of synMDM2; assay type: binding
T1 construct: synthetic MDM2—comprising amino acids 25-109 of the full length MDM2 protein; made in house; host or cells: chemical synthesis (no expression host)
T1 sequence (Q00987 25-109): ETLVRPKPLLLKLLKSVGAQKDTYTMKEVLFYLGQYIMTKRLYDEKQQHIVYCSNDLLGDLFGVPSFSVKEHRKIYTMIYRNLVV
Excerpt: Stoppin-1 was characterized using CD and fluorescence spectroscopy. […] The CD results are entirely consistent with the known structural features of BmBKTx1. As is the case with ^(15-29)p53, the only Trp residue engineered into stoppin-1 is fully solvent exposed in aqueous solution (buffer) as evidenced by the Trp fluorescence maximum (356 nm).
Stoppin-1 was derivatived by making five additional substitutions in its C-terminal region, resulting in a heavily cationic new peptide termed stoppin-2 of the following amino acid sequence: […] (SEQ ID NO:2). Specifically, Ser^18, Ser^19, Ile^23, Asn^24, and Ser^25 (BmBKTx1 numbering) were replaced with Arg, generating a miniprotein with eight cationic residues (including three existing Lys residues) clustered in the C-terminal β-hairpin region. Stoppin-2 was then chemically synthesized and oxidatively folded using procedures previously described herein. The correct folding of stoppin-2 was verified by disulfide mapping using trypsin/CNBr fragmentation coupled with LC-MS analysis. The interaction of stoppin-2 with MDM2/MDMX was characterized using fluorescence spectroscopy.

[1] = target: T2, synMDMX (synthetic MDMX, amino acids 24-108 of the full length MDMX protein) (Homo sapiens, UniProt O15151); assay: SPR-based competition binding assay, synMDMX vs immobilized 15-29p53; conditions: stoppin-1 relative to 15-29p53
T2 construct: synthetic MDMX—comprising amino acids 24-108 of the full length MDMX protein; made in house; host or cells: chemical synthesis (no expression host)
T2 sequence (O15151 24-108): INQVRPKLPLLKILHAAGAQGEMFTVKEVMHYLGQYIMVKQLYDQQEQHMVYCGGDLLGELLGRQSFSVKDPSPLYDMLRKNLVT
Description: Each curve is the mean of four independent measurements at 25° C. in 10 mM HEPES, 150 mM NaCl, 0.005% surfactant P20, pH 7.4. […] Specifically, ^(15-29)p53 was immobilized on a CM5 sensor chip for kinectic analysis of a fixed concentration of ^synMDM2 (50 nM) or ^synMDMX (100 nM) pre-incubated with varying concentrations of stoppin-1 at room temperature. ^(15-29)p53 was used as a control in the competition binding assay. […] To facilitate comparison, several other compounds were included in the panel: ^(15-29)p53, ^(17-28)p53, and Nutlin-3 (a racemic mixture of Nutlin-3a and Nutlin-3b).

[2] = system: p53 wild type HCT116 cells; assay: Tumor cell killing, MTS OD and Trypan blue cell count, HCT116; conditions: for reduction in cell number (Trypan blue cell count) / reduction in cell viability as measured by MTS OD: HCT116, single dose, peptides 100 μg/ml, Nutlin-3 10 μg/ml; for reduction in cell number (Trypan blue cell count): assessed after 3 days; for reduction in HCT116 cell count: HCT116, added daily for three days; for reduction in cell viability as measured by MTS OD: after 3 days
Description: (§1) Nutlin-3, a known small molecule inhibitor of the p53-MDM2 interaction, was given at 10 μg/ml as a positive control. Briefly, HCT116 cells (10,000/well) were plated overnight in McCoy's 5A modified medium (1×) supplemented with 1% pen-strep and 10% heat inactivated FBS. SW480 cells (10,000/well) were plated overnight in DMEM 1× medium, 1% pen-strep and 10% heat inactivated FBS (all reagents were from GIBCO). Cells were treated the next day with the indicated compound and then OD and cell count assessed after 3 days (left column) or peptides were added every day for three day and then OD and cell count were assessed (right column). OD was measured with the MTS kit (Cell titer 96 aqueous non-radioactive cell proliferation assay, Promega). Trypan blue incorporation was used to determine number of cells alive and dead.

p53 mutated SW480 cells = assay: Tumor cell killing, MTS OD and Trypan blue cell count, SW480; conditions: SW480, added daily for three days
Description: as §1

Molecule	shift of Trp fluorescence maximum on addition of synMDM2 (from-to) (synMDM2)	shift of Trp fluorescence on addition of synMDM2 (synMDM2; from 356 nm to 328 nm)	fold lower binding affinity for synMDMX than 15-29p53 [1]	reduction in cell number (Trypan blue cell count) [2]	effect against SW480 (p53 mutated SW480 cells)	reduction in HCT116 cell count [2]	reduction in cell viability as measured by MTS OD [2]
CC[C@H](C)[C@@H]1NC(=O)[C@@H]2CSSC[C@H](N)C(=O)N[C@@H](Cc3ccc(O)cc3)C(=O)N[C@@H](CO)C(=O)N[C@@H](Cc3ccccc3)C(=O)N[C@@H](CC(=O)O)C(=O)N[C@H]3CSSC[C@H](NC(=O)[C@H](CCCCN)NC(=O)[C@H](CO)NC(=O)[C@H](CC(N)=O)NC1=O)C(=O)N[C@@H](CCCCN)C(=O)N[C@H](C(=O)O)CSSC[C@H](NC(=O)[C@H](CCCCN)NC(=O)[C@H](Cc1c[nH]c4ccccc14)NC(=O)[C@H](CC(C)C)NC3=O)C(=O)N[C@@H](CC(C)C)C(=O)N[C@@H](C)C(=O)N[C@@H](CCSC)C(=O)NCC(=O)N[C@@H](Cc1ccccc1)C(=O)N[C@@H](CO)C(=O)N[C@@H](CO)C(=O)NCC(=O)N[C@@H](CCCCN)C(=O)N2 [stoppin-1] (H-CYSFDCLWKCLAMGFSSGKCINSKCKC-OH; disulfide 1-20, 6-25, 10-27)	356 nm to 328 nm	28 nm	approximately 4 fold	minimal	ineffective	–	–
COc1ccc(C2=N[C@@H](c3ccc(Cl)cc3)[C@@H](c3ccc(Cl)cc3)N2C(=O)N2CCNC(=O)C2)c(OC(C)C)c1 [Nutlin-3, reference compound]	–	–	–	over 80%	ineffective	~90%	reduction in HTC cell viability
CYSFDCLWKCLAMGFRRGKCRRRKCKC [stoppin-2]	356 nm to 328 nm	–	–	~70%	ineffective	killed the cells quantitatively	reduction in HTC cell viability
